Key:
Type in all cases: functional
[1] = test system: U-251; test: Cytotoxicity against Homo sapiens (human) U251 cells after 48 hr by sulforhodamine B assay; conditions: U-251, 48 h
[2] = test system: NCI-H226; test: Cytotoxicity against Homo sapiens (human) NCI-H226 cells after 48 hr by sulforhodamine B assay; conditions: NCI-H226, 48 h
[3] = test system: ACHN; test: Cytotoxicity against Homo sapiens (human) ACHN cells after 48 hr by sulforhodamine B assay
[4] = test system: BT-549; test: Cytotoxicity against Homo sapiens (human) BT549 cells after 48 hr by sulforhodamine B assay; conditions: BT-549, 48 h
[5] = Cytotoxicity against Homo sapiens (human) NCI-ADR-RES cells after 48 hr by sulforhodamine B assay
[6] = test system: 786-0; test: Cytotoxicity against Homo sapiens (human) 786-0 cells after 48 hr by sulforhodamine B assay; conditions: 786-0, 48 h
[7] = test system: CAKI-1; test: Cytotoxicity against Homo sapiens (human) Caki1 cells after 48 hr by sulforhodamine B assay; conditions: CAKI-1, 48 h
[8] = test system: NCI-H23; test: Cytotoxicity against Homo sapiens (human) NCI-H23 cells after 48 hr by sulforhodamine B assay; conditions: NCI-H23, 48 h
[9] = test system: CCRF-CEM; test: Cytotoxicity against Homo sapiens (human) CCRF-CEM cells after 48 hr by sulforhodamine B assay
[10] = test system: UACC-62; test: Cytotoxicity against Homo sapiens (human) UACC62 cells after 48 hr by sulforhodamine B assay; conditions: UACC-62, 48 h
[11] = test system: LOX IMVI; test: Cytotoxicity against Homo sapiens (human) LOXIMVI cells after 48 hr by sulforhodamine B assay
[12] = test system: NCI-H460; test: Cytotoxicity against Homo sapiens (human) NCI-H460 cells assessed as cell growth at 10^-4 M after 48 hr by Alamar blue assay; conditions: NCI-H460, 48 h, read-out: Activity
[13] = test system: SK-MEL-28; test: Cytotoxicity against Homo sapiens (human) SK-MEL-28 cells after 48 hr by sulforhodamine B assay; conditions: SK-MEL-28, 48 h
[14] = test system: SN12C; test: Cytotoxicity against Homo sapiens (human) SN12C cells after 48 hr by sulforhodamine B assay
[15] = test system: SF-539; test: Cytotoxicity against Homo sapiens (human) SF539 cells after 48 hr by sulforhodamine B assay; conditions: SF-539, 48 h
[16] = test system: HCT-15; test: Cytotoxicity against Homo sapiens (human) HCT15 cells after 48 hr by sulforhodamine B assay; conditions: HCT-15, 48 h
[17] = test system: K562; test: Cytotoxicity against Homo sapiens (human) K562 cells after 48 hr by sulforhodamine B assay; conditions: K562, 48 h
[18] = test system: A549; test: Cytotoxicity against Homo sapiens (human) A549 cells after 48 hr by sulforhodamine B assay; conditions: A549, 48 h
[19] = test system: M14; test: Cytotoxicity against Homo sapiens (human) M14 cells after 48 hr by sulforhodamine B assay; conditions: M14, 48 h
[20] = test system: MCF7; test: Cytotoxicity against Homo sapiens (human) MCF7 cells assessed as cell growth at 10^-4 M after 48 hr by Alamar blue assay; conditions: MCF7, 48 h, read-out: Activity
[21] = test system: A498; test: Cytotoxicity against Homo sapiens (human) A498 cells after 48 hr by sulforhodamine B assay; conditions: A498, 48 h
[22] = test system: UACC-257; test: Cytotoxicity against Homo sapiens (human) UACC257 cells after 48 hr by sulforhodamine B assay; conditions: UACC-257, 48 h
[23] = test system: SF-268; test: Cytotoxicity against Homo sapiens (human) SF268 cells after 48 hr by sulforhodamine B assay; conditions: SF-268, 48 h
[24] = test system: HOP-92; test: Cytotoxicity against Homo sapiens (human) HOP92 cells after 48 hr by sulforhodamine B assay; conditions: HOP-92, 48 h
[25] = test system: NCI-H522; test: Cytotoxicity against Homo sapiens (human) NCI-H522 cells after 48 hr by sulforhodamine B assay; conditions: NCI-H522, 48 h
[26] = test system: UO-31; test: Cytotoxicity against Homo sapiens (human) UO31 cells after 48 hr by sulforhodamine B assay; conditions: UO-31, 48 h
[27] = test system: OVCAR-8; test: Cytotoxicity against Homo sapiens (human) OVCAR8 cells after 48 hr by sulforhodamine B assay; conditions: OVCAR-8, 48 h
[28] = test system: SNB-19; test: Cytotoxicity against Homo sapiens (human) SNB19 cells after 48 hr by sulforhodamine B assay; conditions: SNB-19, 48 h
[29] = read-out: LC50 (the source's name)

Compound ClCc1ccccc1Cn1cnc2ncnc(Cl)c21 has a GI50 [1] of 1.9 µM, an LC50 (concentration killing 50% of cells) [1] of 10.2 µM and a TGI [1] of 4.36 µM. The GI50 [2] was 3.38 µM, the TGI [2] was 7.94 µM and the CC50 [2, 29] was greater than 100 µM. For the same compound, the GI50 [3] was 1.99 µM, the TGI [3] was 4.26 µM and the CC50 [3, 29] was 9.12 µM. It also gave a GI50 [4] of 2.45 µM, an LC50 (50% lethal concentration) [4] of 25.1 µM and a TGI [4] of 6.02 µM. The GI50 [5] was 2.08 µM, the LC50 (concentration killing 50% of cells) [5] was 6.54 µM and the TGI [5] was 4.46 µM. For the same compound, the GI50 [6] was 3.98 µM, the LC50 [6] was 47.9 µM and the TGI [6] was 12.9 µM. The GI50 [7] was 2.34 µM, the TGI [7] was 4.16 µM and the CC50 [7, 29] was 7.41 µM. The GI50 [8] was 5.01 µM, the TGI [8] was 17.4 µM and the CC50 [8, 29] was 49 µM. For the same compound, the GI50 [9] was 1.44 µM, the TGI [9] was 3.54 µM and the CC50 [9, 29] was 8.7 µM. For the same compound, the GI50 [10] was 1.86 µM, the LC50 (concentration causing 50% net cell kill) [10] was 19.1 µM and the TGI [10] was 5.12 µM. It also gave a GI50 [11] of 1.34 µM, an LC50 [11] of 7.07 µM and a TGI [11] of 3.09 µM. The growth at 100 µM [12] was 0%, the GI50 [13] was 4.46 µM and the LC50 (concentration killing 50% of cells) [13] was 79.4 µM. It also gave a TGI [13] of 18.6 µM, a GI50 [14] of 2.95 µM and an LC50 (50% lethal concentration) [14] of 42.6 µM. The TGI [14] was 8.51 µM, the GI50 [15] was 2.34 µM and the LC50 (concentration killing 50% of cells) [15] was 12 µM. The TGI [15] was 5.01 µM, the GI50 [16] was 1.38 µM and the TGI [16] was 2.88 µM. For the same compound, the CC50 [16, 29] was 6.16 µM, the GI50 [17] was 2.23 µM and the TGI [17] was 5.88 µM. The CC50 [17, 29] was 83.2 µM, the GI50 [18] was 4.46 µM and the TGI [18] was 24 µM. The CC50 [18, 29] was greater than 100 µM, the GI50 [19] was 1.9 µM and the LC50 [19] was 27.5 µM. The TGI [19] was 5.12 µM, the growth at 100 µM [20] was 1% and the GI50 [21] was 18.6 µM. The LC50 (lethal concentration, 50% cell kill) [21] was 57.5 µM, the TGI [21] was 33.1 µM and the GI50 [22] was 5.88 µM. It also gave an LC50 (concentration killing 50% of cells) [22] of 61.6 µM, a TGI [22] of 21.9 µM and a GI50 [23] of 4.78 µM. It also gave a TGI [23] of 24.5 µM, a CC50 [23, 29] greater than 100 µM and a GI50 [24] of 4.36 µM. The TGI [24] was 12.9 µM, the CC50 [24, 29] was 51.3 µM and the GI50 [25] was 2.81 µM. For the same compound, the TGI [25] was 75.9 µM, the CC50 [25, 29] was greater than 100 µM and the GI50 [26] was 3.23 µM. The LC50 (concentration causing 50% net cell kill) [26] was 77.6 µM, the TGI [26] was 10.7 µM and the GI50 [27] was 2.75 µM. It also gave an LC50 (concentration killing 50% of cells) [27] of 58.9 µM, a TGI [27] of 8.7 µM and a GI50 [28] of 7.24 µM. The LC50 [28] was greater than 100 µM and the TGI [28] was greater than 100 µM.
